Measured values published in patent publication US20260224555A1, “NEW PHENYLQUINOLONE COMPOUND HAVING ANTIBACTERIAL AND ANTI-CANCER FUNCTIONS AND PREPARATION THEREOF” (AlphaMol Science Ltd (Shanghai), priority 2022, published 2026).
Like-named read-outs stand apart in the source and are kept apart here.

Columns and labels:
Type in all cases: cell-based
E. coli ATCC 25922 = experiment: In vitro antibacterial activity assay (MIC, broth dilution); settings: Escherichia coli, ATCC25922
Description: (§1) The method used to indicate the activity of the compounds in this example is to record the minimum inhibitory concentration (MIC) of the compounds against bacteria. The specific experimental method is as follows:
(§2) 1. The bacterial liquid cultured from a single colony was taken, and diluted into autoclaved CAMHB broth in a ratio of 1:1000, and mixed well.
(§3) 2. The prepared drug solution was filtered through a sterile 0.22 µm syringe filter and placed in a sterile EP tube for later use.
(§4) 3. A 96-well plate was taken, and 20 µL of drug solution ([…]) was added to each well in the first column of the 96-well plate. Then, 180 µL of diluted bacterial liquid was added and mixed well (Perform 3 replicate rows for each drug).
(§5) The same process was performed for the hydrochloride drug.
(§6) 4. 100 μL of diluted bacterial liquid was added to each well in the remaining 11 columns of the 96-well plate. Drugs are the same as above.
(§7) 5. Serial dilution: 100 μL of liquid was taken from the first column to the second column, mixed well, then 100 μL of liquid was taken from the second column to the third column, mixed well, and so on, sequentially diluting down to the last column (column 12). After mixing column 12 well, 100 μL of liquid thereof was discarded. The drug concentration in each well was decreased by two-fold serially (the concentration in the first well is 40 μg/mL).
(§8) 6. Blank CAMHB broth without added bacteria liquid was added to 3 blank wells in the 96-well plate, as negative control.
(§9) 7. The diluted bacterial liquid was added to 3 blank wells in the 96-well plate, as positive control.
(§10) 8. Incubated at 37° C. for 16 hours.
(§11) 9. Results reading: the minimum inhibitory concentration is the minimum drug concentration at which no bacterial growth is visible to the naked eye and without turbidity.

S. aureus ATCC 43300 = experiment: as above; settings: Staphylococcus aureus, ATCC43300
Description: as §1, §2, §3, §4, §5, §6, §7, §8, §9, §10, §11

Hela [1] = experiment: In vitro anticancer activity test (MTT cell proliferation); settings: Homo sapiens, average proliferation inhibition rate at the dosage of 40 μM, read-out: Hela Average inhibition rate %
Protocol: (§12) The anticancer activity of the compounds was tested using an in vitro cancer cell tests. The specific test method is as follows:
(§13) 1. Cell recovery and culture method: the cryovial was taken out from the liquid nitrogen container firstly, soaked directly in 37° C. warm water, and shaked from time to time to let it thaw as soon as possible. Then, the cryovial was transferred to a clean bench, and the lid was open. The cell suspension was taken into a centrifuge tube using a rubber-tipped dropper and more than 10 times the culture medium was added, mixed well, and centrifuged at 50 g for 5 minutes. Then, the supernatant was discarded, complete culture medium containing 10% fetal bovine serum was added to resuspend the cells, the cells was counted, the cell density was adjusted, and then inoculated into a culture bottle. The culture bottle was placed in a cell culture incubator at 5% CO2 and 37° C. The complete culture medium was replaced once the next day and the culture was continued.
(§14) 2. Cell passaging method: adherent cells in the logarithmic growth phase were placed in a clean bench, the original culture medium was discarded, and washed three times with 1×PBS. An appropriate amount of 0.25% trypsin digestion solution was added to moisten the cells, and then the trypsin solution was aspirated. The cells were placed in a cell culture incubator at 5% CO2 and 37° C. for digestion for a suitable time, and observed under a microscope. When 90% of the cells become round, the cells were moved immediately to the clean bench and complete culture medium was added to terminate digestion. Then, the cells were dislodged by pipetting up and down with a rubber-tipped dropper to single cells. The cells were counted, and the cell density was adjusted. The cells were inoculated into a suitable culture bottle or dish, added enough complete culture medium, and placed in a cell culture incubator at 5% CO2 and 37° C. for static culture.
(§15) For suspension cells in the logarithmic phase, the original culture medium was directly centrifuged at 50 g for 5 minutes, the supernatant was discarded, and the cells were washed once with PBS and centrifuged. After discarding the supernatant, the complete culture medium was added and the cells were dispersed using a rubber-tipped dropper. The cells are counted, and the cell density was adjusted. The cells were inoculated into appropriate culture bottles or culture dishes, and sufficient complete culture medium was added, and the cells were cultured in a cell culture incubator at 5% CO2 and 37° C.
(§16) 3. Cell proliferation assay: cells in good state in logarithmic phase were taken and appropriate amount of the cells was inoculated into 96-well plates according to the cell passage treatment method, with each well containing 180 μL complete medium. After the cells growth was recovered and the number of cells in each well is 5000±500, a drug was added for treatment.
(§17) After drug treatment during the experimental time, MTT solution with a final concentration of 0.5 mg/mL was added to each well, and placed in a cell culture incubator at 5% CO2 and 37° C. to allow a fully reaction of MTT with cells. After 4 hours, the solution in the 96-well plate was discarded, 100 µL of DMSO was added, and shaked to dissolve the formazan precipitated at the bottom of the plate, and the absorbance value of samples was detected at a wavelength of 570 nm using a microplate reader. Calculation method of cell viability rate:
Table 4 lists some compounds that have inhibitory effects against both of bacteria and cancer cells. In the table, the inhibitory effects against cancer cells are shown: the average proliferation inhibition rate (%) against cancer cells at the dosage of 40 μM.

[2] = tested on: human Burkitt's lymphoma cell Raji; experiment: as above
Protocol: as §12, §13, §14, §15, §16
as §17, with “rate: […]” for “rate:”

[3] = tested on: human non-small cell lung cancer cell A549; experiment: as above
Protocol: as §12, §13, §14, §15, §16
as §17, with “rate: […]” for “rate:”

[4] = tested on: human acute T-lymphoblastic leukemia cell Jurkat; experiment: as above
Protocol: as §12, §13, §14, §15

[5] = tested on: human bladder transitional cell carcinoma cell T24; experiment: as above; settings: T-24
Protocol: as §12, §13, §14, §15

[6] = tested on: human breast cancer cell MCF-7; experiment: as above; settings: MCF7
Protocol: as §12, §13, §14, §15

[7] = tested on: human breast ductal carcinoma cell T-47D; experiment: as above; settings: T47D
Protocol: as §12, §13, §14, §15

[8] = tested on: human epidermal carcinoma cell A431; experiment: as above; settings: A-431
Protocol: as §12, §13, §14, §15

[9] = tested on: human ovarian adenocarcinoma cell SK-OV-3; experiment: as above
Protocol: as §12, §13, §14, §15

Hela [10] = experiment: as above; settings: Homo sapiens

O=C(CCl)Nc1ncc(-c2cc3c(cc2F)c(=O)c(C(=O)O)cn3C2CC2)cc1F [Example 135]
≥ 50%: inhibition at 40 µM (Hela [1])
≤ 1 µg/mL: MIC (E. coli ATCC 25922; Table 4, read-out: E. coli ATCC 25922 MIC) | MIC (S. aureus ATCC 43300; Table 4, read-out: S. aureus ATCC 43300 MIC)
1 to 10 µM: IC50 [2] | IC50 [3] | IC50 [4] | IC50 [5] | IC50 [6] | IC50 [7] | IC50 [8] | IC50 [9] | IC50 (Hela [10])
≤ 0.1 µg/mL: MIC (E. coli ATCC 25922; Table 3, read-out: MIC E. coli ATCC 25922) | MIC (S. aureus ATCC 43300; Table 3, read-out: MIC S. aureus ATCC 43300)
